The text below walks through data of ChEMBL document CHEMBL3774316, “Design, synthesis and anti-HIV-1 evaluation of hydrazide-based peptidomimetics as selective gelatinase inhibitors” (Bioorg Med Chem, 2016).

The subject of series [1] is Human immunodeficiency virus 1. The series can be described thus: Antiviral activity against HIV1 A17 infected in human C8166 cells assessed as reduction in p24 antigen level incubated for 4 hrs followed by cell plating for 72 hrs by ELISA method. The class given is functional, organism-based. The note with it: Human immunodeficiency virus 1, A17, C8166.
For the next series, the target named is T1, Aminopeptidase N (Sus scrofa, UniProt P15145).
T1 sequence (P15145 whole entry): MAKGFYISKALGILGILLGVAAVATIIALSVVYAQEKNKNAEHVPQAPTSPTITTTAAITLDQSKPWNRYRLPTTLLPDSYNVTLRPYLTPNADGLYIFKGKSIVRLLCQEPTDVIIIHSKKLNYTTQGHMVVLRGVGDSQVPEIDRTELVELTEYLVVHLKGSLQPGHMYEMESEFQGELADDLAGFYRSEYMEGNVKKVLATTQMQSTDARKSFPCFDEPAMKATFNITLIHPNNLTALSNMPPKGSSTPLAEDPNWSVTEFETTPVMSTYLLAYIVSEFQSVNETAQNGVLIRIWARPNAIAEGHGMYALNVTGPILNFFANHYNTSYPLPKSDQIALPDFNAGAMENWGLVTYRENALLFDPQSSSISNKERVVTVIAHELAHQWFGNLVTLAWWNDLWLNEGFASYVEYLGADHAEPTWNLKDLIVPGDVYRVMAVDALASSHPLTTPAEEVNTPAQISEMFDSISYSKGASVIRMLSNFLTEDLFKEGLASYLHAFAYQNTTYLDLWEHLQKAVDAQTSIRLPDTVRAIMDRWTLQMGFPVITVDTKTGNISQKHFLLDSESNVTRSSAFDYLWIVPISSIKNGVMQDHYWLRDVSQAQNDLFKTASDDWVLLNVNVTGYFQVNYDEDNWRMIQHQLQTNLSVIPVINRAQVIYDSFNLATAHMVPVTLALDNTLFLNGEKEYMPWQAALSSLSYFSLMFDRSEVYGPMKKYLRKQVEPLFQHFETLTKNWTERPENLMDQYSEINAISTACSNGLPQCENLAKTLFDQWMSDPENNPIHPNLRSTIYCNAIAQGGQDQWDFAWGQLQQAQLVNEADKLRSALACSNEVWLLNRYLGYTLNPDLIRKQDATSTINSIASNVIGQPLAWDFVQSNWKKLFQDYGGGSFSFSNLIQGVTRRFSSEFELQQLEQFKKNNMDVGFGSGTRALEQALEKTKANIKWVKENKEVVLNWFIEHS
As to the kind of experiment: Inhibition of porcine microsomal aminopeptidase N preincubated for 30 mins using L-Leu-p-nitroanilide as substrate by UV-VIS spectrophotometer.

Series [2] concerns Human immunodeficiency virus 1. The series can be described thus: Antiviral activity against HIV1 3B infected in human C8166 cells assessed as reduction in p24 antigen level incubated for 2 hrs followed by cell plating for 72 hrs by ELISA method. The series is classed as functional, organism-based. The settings on record: Human immunodeficiency virus 1, 3B.
The nature of series [3]: Therapeutic index, ratio of CC50 for human C8166 cells to EC50 for HIV1 3B infected in human C8166 cells. The series is classed as cell-based. The note with it: read-out: Ratio CC50/EC50.
The target of series [4] is 72 kDa type IV collagenase (Homo sapiens, UniProt P08253). As to the kind of experiment: Inhibition of gelatinase A (unknown origin) after 30 mins using succinylated gelatin as substrate.
The next series has as its system C8166. The series can be described thus: Cytotoxicity against human C8166 cells after 72 hrs by MTT assay. The class given is functional. The settings on record: C8166, 72 h.
The test system of series [5] is Human immunodeficiency virus 1. As to the kind of experiment: Antiviral activity against HIV1 74V infected in human C8166 cells assessed as reduction in p24 antigen level incubated for 4 hrs followed by cell plating for 72 hrs by ELISA method. The series is classed as functional, organism-based. The note with it: Human immunodeficiency virus 1, 74V.
Series [6] has as its system Human immunodeficiency virus 1. The series can be described thus: Antiviral activity against HIV1 3B infected in human C8166 cells assessed as cytopathic effect by counting the number of syncytia by microscopy. The series is classed as functional, organism-based. The settings on record: Human immunodeficiency virus 1, 3B.

72 kDa type IV collagenase, sequence (P08253 whole entry): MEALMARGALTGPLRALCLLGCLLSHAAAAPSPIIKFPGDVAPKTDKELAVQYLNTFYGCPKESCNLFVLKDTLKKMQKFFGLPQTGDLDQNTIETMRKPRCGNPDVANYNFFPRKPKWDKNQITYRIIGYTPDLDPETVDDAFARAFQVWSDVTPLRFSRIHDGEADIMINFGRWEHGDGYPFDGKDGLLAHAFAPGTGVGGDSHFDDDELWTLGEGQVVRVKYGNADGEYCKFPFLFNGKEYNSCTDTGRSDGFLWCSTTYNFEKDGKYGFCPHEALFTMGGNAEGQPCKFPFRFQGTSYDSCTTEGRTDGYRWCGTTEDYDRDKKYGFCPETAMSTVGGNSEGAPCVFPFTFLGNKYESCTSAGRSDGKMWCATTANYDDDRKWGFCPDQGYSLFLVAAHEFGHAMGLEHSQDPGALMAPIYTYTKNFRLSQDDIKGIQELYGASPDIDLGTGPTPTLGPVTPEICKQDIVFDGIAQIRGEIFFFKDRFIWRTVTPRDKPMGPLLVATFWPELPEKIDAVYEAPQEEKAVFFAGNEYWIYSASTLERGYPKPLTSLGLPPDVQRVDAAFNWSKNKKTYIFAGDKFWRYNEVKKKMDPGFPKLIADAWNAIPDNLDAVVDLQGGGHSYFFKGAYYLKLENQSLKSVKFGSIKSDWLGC

On to `Cc1ccc(S(=O)(=O)N2CC3(C[C@H]2C(=O)N/N=C/c2ccc(N(C)C)cc2)SCCS3)cc1`, for which the 50% effective concentration (EC50) in series [1] turned out to be 74 µM; in series [2] it was 75.6 µM; in series [5], 56.3 µM; in series [6] it was 37.7 µM. Further, the IC50 against Aminopeptidase N is above 1000 µM; in series [4], 5.52 µM. For the same compound, the selectivity ratio in series [3] was above 10.5. The CC50 in the series on C8166 was above 397 µM.

In the case of `Cc1ccc(S(=O)(=O)N2CC3(C[C@H]2C(=O)N/N=C/c2ccccc2Cl)SCCS3)cc1`, the EC50 in series [1] worked out at 18.2 µM; in series [2], 149 µM; in series [5], 93.6 µM; in series [6], 30.3 µM. Also, the half-inhibitory concentration (IC50) against Aminopeptidase N was above 1000 µM; in series [4] it was 0.64 µM. In addition, the selectivity ratio in series [3] was above 13.3. For the same compound, the CC50 with C8166 was above 404 µM.

`Cc1ccc(S(=O)(=O)N2CC3(C[C@H]2C(=O)N/N=C/c2cccc([N+](=O)[O-])c2)SCCS3)cc1`: the EC50 in series [1] stood at 9.94 µM; in series [2] it was 3.89 µM; in series [5], 5.07 µM; in series [6] it was 16 µM. Also, the IC50 is above 1000 µM against Aminopeptidase N and 1.05 µM in series [4]. Also, in series [3], the selectivity ratio was above 24.6. In the series on C8166, this compound gave a CC50 above 395 µM.

As for `COc1cc(/C=N/NC(=O)[C@@H]2CC3(CN2S(=O)(=O)c2ccc(C)cc2)SCCS3)cc(OC)c1OC`, the EC50 in series [1] turned out to be 38.7 µM; in series [2], 65.1 µM; in series [5], 96 µM; in series [6] it was 38.5 µM. For the same compound, the half-maximal inhibitory concentration (IC50) against Aminopeptidase N is above 1000 µM; in series [4], 210 µM. In addition, the selectivity ratio in series [3] was 8.5. In the series on C8166, this compound had a CC50 of 327 µM.

`Cc1ccc(S(=O)(=O)N2CC3(C[C@H]2C(=O)N/N=C/c2ccccc2Br)SCCS3)cc1`: the EC50 in series [1] turned out to be 18.3 µM; in series [2] it was 33.4 µM; in series [5], 30.6 µM; in series [6], 28 µM. The IC50 against Aminopeptidase N was above 1000 µM; in series [4] it was 0.41 µM. Besides, in series [3], the selectivity ratio worked out at 6.3. For the same compound, the cytotoxic concentration (CC50) in the series on C8166 is 177 µM.
